# How the values were obtained:
# [1] = test system: BUBR1 in IMR90-progerin cells; experiment: Western blot of BUBR1 in progerin-expressing IMR90 cells; type: cell-based, human
# Protocol: Western blot was performed as previously described. Cells were lysed in 1× Laemmli sample buffer after washing twice in cold PBS without calcium and magnesium. Protein concentrations were determined using the bicinchoninic acid (BCA) protein assay. Protein lysates were subjected to SDS–PAGE, transferred to 0.45-μm pore size hydrophobic PVDF transfer membrane (Merck Millipore), detected with the appropriate primary antibodies coupled with horseradish peroxidase-conjugated corresponding secondary antibodies, and visualized using enhanced chemiluminescence ECL reagent (GE Healthcare). The Tanon 5500 high-definition low-illumination CCD system (Tanon FLI Capture v.1.02) was used to capture chemiluminescent signals.
# [2] = test system: progerin–PTBP1 interaction; experiment: CoIP of progerin and PTBP1 in HEK-293T cells; type: cell-based; conditions: CoIP in HEK-293T; HGPS cells
# Protocol: (§1) Detailed descriptions of CoIP were described previously[55],[56]. Cells were harvested and washed three times in cold PBS, then lysed in CoIP buffer (25 mM Tris-HCl (pH 7.5), 150 mM KCl, 5 mM EDTA, and 0.5% NP-40) plus protease inhibitor cocktail tablet (Roche). Incubate on ice and shock lysates on the vortex shaker 15 times for 30 s each. Microcentrifuge in 12,000g for 15 min at 4 °C, collect the supernatant, and incubate with 3 μg primary antibodies with gentle shaking overnight at 4 °C, followed by adding 20–40 μl Pure Proteome Protein A/G Mix Magnetic Beads (Millipore, catalog no. […]02) for 3 h. Wash the beads three times with 1 ml CoIP buffer for 8 min each, resuspend in 50 μl 1× loading buffer, and incubate at 100 °C for 8 min. Throw beads away and analyze by immunoblotting.
# [3] = test system: PTBP1 in HGADFN003 cells; experiment: PTBP1 nuclear membrane localization in HGADFN003 cells; type: cell-based, human; conditions: HGADFN003, UPCP
# Protocol: Immunofluorescence was performed as described previously. Cells were plated on cover slips in 12-well plates, left overnight before the treatment. Cells were fixed in 1% formaldehyde in culture medium for 10 min at 37 °C and permeabilized with 0.2% Triton X-100 in PBS for 10 min at room temperature. Cells were washed twice in PBS and blocked for 1 h with 5% BSA in PBS and then incubated with primary antibodies at 4 °C overnight, washed three times in PBS and incubated with secondary antibodies for 1 h at room temperature. Cell nuclei were counterstained with a 500 nM concentration of 4,6-diamidino-2-phenylindole (DAPI) (Sigma). Images were acquired by a fluorescence microscope (OLYMPUS FV-1000, Carl Zeiss LSM880 or Leica DMi8) and analyzed with software NIS-Elements AR v.5.0.1 (Nikon), FLUOVIEW v.4.2b (OLYMPUS), ZEN v.2.3 SP1 (Carl Zeiss) and Leica Application Suite X v.3.6.0.24 (Leica). Cells were quantified by investigators who were blinded to the identity of the analyzed cell.
# [4] = test system: progerin–BUBR1 interaction; experiment: CoIP of progerin and BUBR1 in HEK-293T cells; type: cell-based; conditions: HEK-293T, Flag-progerin, UPCP 6 μM, 12 μM and 18 μM
# Protocol: as §1
substance,measurement,setting,value
"H-YGRKKRRQRRRYNLRSRTVLCGTCGQPADKASASGSGAQSPQNCSIM-OH (cysteines drawn unpaired) [UPCP, unique progerin C-terminal peptide]",BUBR1 abundance,[1],upregulated BUBR1
same,interaction of PTBP1 and progerin,[2],weakened the interaction of PTBP1 and progerin
same,PTBP1 nuclear membrane location cells,[3]; replicate 1,45%
same,PTBP1 nuclear membrane location cells,[3]; replicate 2,39%
same,PTBP1 nuclear membrane location cells,[3]; replicate 3,35%
same,interaction between progerin and BUBR1,[4],interfered with the interaction between progerin and BUBR1

# From publication PMC10154249, “Unique progerin C-terminal peptide ameliorates Hutchinson–Gilford progeria syndrome phenotype by rescuing BUBR1” (Nature Aging, 2023)
